Measurements taken from patent US6573218B1, “Fused-benzene derivatives useful as herbicides” (Ishihara Sangyo Kaisha, Ltd., priority 1998, dated 2003).

Key:
Format in all cases: in vivo
[1] = test system: large crabgrass (Digitaria sanguinalis, DIGSA); experiment: Pre-emerge greenhouse herbicide test; conditions: 250 g ai/ha, 14 days after application, scale 0-100 (0 no damage, 100 complete death)
Outline: (§1)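 Greenhouse pot test; acetone vehicle, 187 l/ha, 15–1000 g ai/ha. Post: 2–3 leaf, +0.25% v/v non-ionic surfactant. Pre: sown d-1, surface-watered after spray. Read-out 0–100 injury, 14 DAT.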

[2] = test system: redroot pigweed (Amaranthus retroflexus, AMARE); experiment: Pre-emerge greenhouse herbicide test; conditions: 250 g ai/ha, 14 days after application, scale 0-100 (0 no damage, 100 complete death)
Outline: as §1

[3] = test system: sicklepod (Cassia obtusifolia, CASOB); experiment: Pre-emerge greenhouse herbicide test; conditions: 250 g ai/ha, 14 days after application, scale 0-100 (0 no damage, 100 complete death)
Outline: as §1

[4] = test system: barnyardgrass (Echinochloa crus-galli, ECHCG); experiment: Pre-emerge greenhouse herbicide test; conditions: 250 g ai/ha, 14 days after application, scale 0-100 (0 no damage, 100 complete death)
Outline: as §1

[5] = test system: lambsquarters (Chenopodium album, CHEAL); experiment: Pre-emerge greenhouse herbicide test; conditions: 250 g ai/ha, 14 days after application, scale 0-100 (0 no damage, 100 complete death)
Outline: as §1

[6] = test system: johnsongrass (Sorghum halepense, SORHA); experiment: Pre-emerge greenhouse herbicide test; conditions: 250 g ai/ha, 14 days after application, scale 0-100 (0 no damage, 100 complete death)
Outline: as §1

[7] = test system: velvetleaf (Abutilon theophrasti, ABUTH); experiment: Pre-emerge greenhouse herbicide test; conditions: 250 g ai/ha, 14 days after application, scale 0-100 (0 no damage, 100 complete death)
Outline: as §1

[8] = test system: green foxtail (Setaria viridis, SETVI); experiment: Pre-emerge greenhouse herbicide test; conditions: 250 g ai/ha, 14 days after application, scale 0-100 (0 no damage, 100 complete death)
Outline: as §1

[9] = test system: ivyleaf morningglory (Ipomoea hederacea, IPOHE); experiment: Pre-emerge greenhouse herbicide test; conditions: 250 g ai/ha, 14 days after application, scale 0-100 (0 no damage, 100 complete death)
Outline: as §1

[10] = test system: field corn (Zea mays L., var. Dekalb 527, CORN); experiment: Pre-emerge greenhouse crop damage test
Outline: as §1

[11] = test system: upland rice (Ory0a sp., var.Tebonnet, RICE); experiment: Pre-emerge greenhouse crop damage test; conditions: in vivo
Outline: as §1

[12] = test system: soybean (Glycine max L., var. Pella 86, SOY); experiment: Pre-emerge greenhouse crop damage test
Outline: as §1

[13] = test system: field corn (Zea mays L., var. Dekalb 527, CORN); experiment: Post-emerge greenhouse crop damage test
Outline: as §1

[14] = test system: upland rice (Ory0a sp., var.Tebonnet, RICE); experiment: Post-emerge greenhouse crop damage test
Outline: as §1

[15] = test system: soybean (Glycine max L., var. Pella 86, SOY); experiment: Post-emerge greenhouse crop damage test
Outline: as §1

[16] = test system: large crabgrass (Digitaria sanguinalis, DIGSA); experiment: Post-emerge greenhouse herbicide test; conditions: 250 g ai/ha, 14 days after application
Outline: as §1

[17] = test system: common ragweed (Ambrosia artemisiifolia L., AMBEL); experiment: Post-emerge greenhouse herbicide test; conditions: 250 g ai/ha, 14 days after application
Outline: as §1

[18] = test system: redroot pigweed (Amaranthus retroflexus, AMARE); experiment: Post-emerge greenhouse herbicide test; conditions: 250 g ai/ha, 14 days after application
Outline: as §1

[19] = test system: sicklepod (Cassia obtusifolia, CASOB); experiment: Post-emerge greenhouse herbicide test; conditions: 250 g ai/ha, 14 days after application
Outline: as §1

[20] = test system: barnyardgrass (Echinochloa crus-galli, ECHCG); experiment: Post-emerge greenhouse herbicide test; conditions: 250 g ai/ha, 14 days after application
Outline: as §1

[21] = test system: lambsquarters (Chenopodium album, CHEAL); experiment: Post-emerge greenhouse herbicide test; conditions: 250 g ai/ha, 14 days after application
Outline: as §1

[22] = test system: johnsongrass (Sorghum halepense, SORHA); experiment: Post-emerge greenhouse herbicide test; conditions: 250 g ai/ha, 14 days after application
Outline: as §1

[23] = test system: velvetleaf (Abutilon theophrasti, ABUTH); experiment: Post-emerge greenhouse herbicide test; conditions: 250 g ai/ha, 14 days after application
Outline: as §1

[24] = test system: green foxtail (Setaria viridis, SETVI); experiment: Post-emerge greenhouse herbicide test; conditions: 250 g ai/ha, 14 days after application
Outline: as §1

[25] = test system: ivyleaf morningglory (Ipomoea hederacea, IPOHE); experiment: Post-emerge greenhouse herbicide test; conditions: 250 g ai/ha, 14 days after application
Outline: as §1

[26] = var. Dekalb 527, field corn (Zea mays L.), in vivo, 14 days
[27] = var. Tebonnet, upland rice (Ory0a sp.), 14 days
[28] = var. Pella 86, soybean (Glycine max L.), in vivo, 14 days
[29] = var. Tebonnet, upland rice (Ory0a sp.), in vivo, 14 days
[30] = pre-emerge, 250 g ai/ha, 14 days after application, scale 0-100 (0 no damage, 100 complete death)
[31] = 250 g ai/ha, post-emerge, 14 days after application

SMILES	Pre-emerge Herbicidal Activity DIGSA (phytotoxicity rating) [1]	Pre-emerge Herbicidal Activity AMARE (phytotoxicity rating) [2]	Pre-emerge Herbicidal Activity CASOB (phytotoxicity rating) [3]	Pre-emerge Herbicidal Activity ECHCG (phytotoxicity rating) [4]	Pre-emerge Herbicidal Activity CHEAL (phytotoxicity rating) [5]	Pre-emerge Herbicidal Activity SORHA (phytotoxicity rating) [6]	Pre-emerge Herbicidal Activity ABUTH (phytotoxicity rating) [7]	Pre-emerge Herbicidal Activity SETVI (phytotoxicity rating) [8]	Pre-emerge Herbicidal Activity IPOHE (phytotoxicity rating) [9]	Pre-emerge Herbicidal Activity CORN (crop damage rating) [10, 26]	Pre-emerge Herbicidal Activity RICE (crop damage rating) [11, 27]	Post-emerge Herbicidal Activity DIGSA (phytotoxicity rating 0-100) [16]	Post-emerge Herbicidal Activity AMARE (phytotoxicity rating 0-100) [18]	Post-emerge Herbicidal Activity CASOB (phytotoxicity rating 0-100) [19]	Post-emerge Herbicidal Activity ECHCG (phytotoxicity rating 0-100) [20]	Post-emerge Herbicidal Activity CHEAL (phytotoxicity rating 0-100) [21]	Post-emerge Herbicidal Activity SORHA (phytotoxicity rating 0-100) [22]	Post-emerge Herbicidal Activity ABUTH (phytotoxicity rating 0-100) [23]	Post-emerge Herbicidal Activity SETVI (phytotoxicity rating 0-100) [24]	Post-emerge Herbicidal Activity IPOHE (phytotoxicity rating 0-100) [25]	further results
COC(=O)CC1CNc2c(c(Cl)cc(F)c2-n2c(=O)cc(C(F)(F)F)n(C)c2=O)O1 (stereo not drawn) [Compound 2-8, 3-[8-Chloro-6-fluoro-2-(methoxycarbonyl)methyl-3,4-dihydro-2H-1,4-benzoxazin-5-yl]-1-methyl-6-trifluoromethyl-2,4(1H,3H)-pyrimidindione]	100	100	100	60	100	100	100	100	100	70	50	50	100	50	80	100	95	100	100	100	Pre-emerge Herbicidal Activity SOY (crop damage rating) [12, 28]: 100; Post-emerge crop damage CORN (phytotoxicity rating 0-100) [13, 26]: 70; Post-emerge crop damage RICE (phytotoxicity rating 0-100) [14, 29]: 90; Post-emerge crop damage SOY (phytotoxicity rating 0-100) [15, 28]: 100; Post-emerge Herbicidal Activity AMBEL (phytotoxicity rating 0-100) [17]: 100
Cc1nc2c(-n3c(=O)cc(C(F)(F)F)n(C)c3=O)c(F)cc(Cl)c2oc1=O [Compound 3-1, 3-(8-Chloro-6-fluoro-3-methyl-2H-1,4-benzoxazin-2-one-5-yl)-1-methyl-6-trifluoromethyl-2,4(1H,3H)-pyrimidindione]	0	60	0	0	100	0	100	20	0	0	0	0	70	0	0	60	0	95	0	50	Pre-emerge Herbicidal Activity SOY (crop damage rating) [12, 28]: 0; Post-emerge crop damage CORN (phytotoxicity rating 0-100) [13, 26]: 0; Post-emerge crop damage RICE (phytotoxicity rating 0-100) [14, 29]: 0; Post-emerge crop damage SOY (phytotoxicity rating 0-100) [15, 28]: 30; Post-emerge Herbicidal Activity AMBEL (phytotoxicity rating 0-100) [17]: 20
CCc1nc2c(-n3c(=O)n4n(c3=S)CCC=C4)c(F)cc(Cl)c2o1 [Compound 8-1, 8-(7-Chloro-2-ethyl-5-fluorobenzoxazol-4-yl)-1,6,8-triazabicyclo[4,3,0]2-nonene-9-one-7-thione]	100	100	90	90	100	100	100	100	60	50	20	70	100	100	90	99	99	100	100	100	Pre-emerge Herbicidal Activity SOY (crop damage rating) [12, 28]: 60; Post-emerge crop damage CORN (phytotoxicity rating 0-100) [13, 26]: 80; Post-emerge crop damage RICE (phytotoxicity rating 0-100) [14, 29]: 80; Post-emerge crop damage SOY (phytotoxicity rating 0-100) [15, 28]: 100
CC1Oc2c(Cl)cc(F)c(-c3nn(C)c(OC(F)F)c3Cl)c2NC1=O (stereo not drawn) [Compound 10-8, 4-Chloro-3-(8-chloro-6-fluoro-2-methyl-2H-1,4-benzoxazine-3-one-5-yl)-5-difluoromethoxy-1-methyl-i H-pyrazole]	100	100	95	100	100	99	100	100	99			65	100	100	100	100	55	100	100	100	Pre-emerge Herbicidal Activity CORN (crop damage rating) [10, 30]: 0; Pre-emerge Herbicidal Activity RICE (crop damage rating) [11]: 40; Pre-emerge Herbicidal Activity SOY (crop damage rating) [12, 30]: 15; Post-emerge crop damage CORN (phytotoxicity rating 0-100) [13, 31]: 25; Post-emerge crop damage RICE (phytotoxicity rating 0-100) [14, 31]: 90; Post-emerge crop damage SOY (phytotoxicity rating 0-100) [15, 31]: 100; Post-emerge Herbicidal Activity AMBEL (phytotoxicity rating 0-100) [17]: 95
